Data as given in paper PMC11939470, “The Cyclic Antimicrobial Peptide C-LR18 Has Enhanced Antibacterial Activity, Improved Stability, and a Longer Half-Life Compared to the Original Peptide” (Antibiotics, 2025).
Where a SMILES comes first, the peptide text is derived from it. Bridges are numbered along the chain shown (N, C = ends).

Legend:
[1] = test system: Gram-negative bacteria; experiment: Geometric mean MIC (MBC) and therapeutic index; assay type: cell-based; details: average MIC against the tested Gram-negative strains
Protocol: (§1) The MIC test was performed using the method recommended by the National Committee for Clinical Laboratory Standards (NCCLS) Standards and Guidelines, and the method was modified according to the characteristics of antimicrobial peptides. The bacteria were cultured at 37 °C for 16 h, and the microbial suspension was diluted to a final concentration of 5 × 10^5 CFU/mL. Then, 50 µL of bacterial solution was mixed with 50 µL of MHB containing different concentrations peptides (0.5–256 µM) in a 96-well plate. […] The assays were performed three times. Geometric mean MIC represents the average MIC of the peptide against all the tested strains.
MBC detection was performed according to the method of Taiyari et al.. According to the MIC results, 50 µL of bacterial cultures was absorbed from the minimum inhibitory concentration hole and the three previous holes, respectively; transferred to a new MH solid medium; and incubated in an incubator at 37 °C overnight, and the bacteria on the plate were counted. The concentration of antibacterial peptide that kills 99.99% of the tested bacteria is defined as the minimum bactericidal concentration (MBC) of the peptide. The experiment was repeated three times. Geometric mean MBC represents the average […] of the peptide against all the tested strains.

[2] = test system: E. coli ATCC25922; experiment: Membrane permeability assay (propidium iodide uptake, flow cytometry); assay type: cell-based; details: 1 × MIC (4 μM), 30 min 37 °C, 1 × 10^6 CFU/mL, PBS control 3.25%
Protocol: The effect of C-LR18 on bacterial membrane permeability was measured using the propidium iodide (PI) uptake assay described in [22]. E. coli ATCC25922 in logarithmic growth phase were adjusted to 1 × 10^6 CFU/mL. C-LR18 was added with the final concentration of 4 μM. The mixtures were incubated for 30 min at 37 °C. […] After eliminating unbound dye by washing twice with PBS, the bacterial cells were detected using a flow cytometer (Ex = 535 nm/Em = 615 nm). The results were analyzed using FlowJo 6.2.1 and GraphPad Prism 5 software.

[3] = test system: E. coli ATCC25922; experiment: Stability in protease, read out by MIC assay; assay type: in vitro ADME; details: 1 mg/mL papain for 1 h
Protocol: as §1
(§2) The stability of LR18 and C-LR18 in protease, serum, and gastrointestinal conditions was determined using MIC assay, as described previously.
To detect the stability of peptides in protease, the peptides were diluted in 1 mg/mL of trypsin, pepsin, papain, and protease K, respectively, and incubated at 37 °C for 1 h. Then, the protease in the peptide solutions was inactivated in a water bath at 60 °C for 30 min. Subsequent steps were the same as for the MIC assay. The assays were performed three times.

[4] = test system: E. coli ATCC25922; experiment: Stability in serum, read out by MIC assay; assay type: in vitro ADME
Protocol: as §1, §2
To detect the stability of peptides in serum, the peptides were mixed with various concentrations of fetal bovine serum and mouse serum solutions, and the final concentrations of serum were 6.25%, 12.5%, 25%, and 50%. The MIC of peptides against E. coli ATCC25922 in the presence of different concentrations of serum was determined. Subsequent steps were the same as for the MIC assay. The assays were performed three times.

[5] = Half-life of peptides in plasma in vitro (HPLC); assay type: in vitro ADME, rat
Protocol: Half-life of peptides in vitro was determined using HPLC according to the method described in [30]. Blood from SPF SD rats was collected in a centrifuge tube containing 0.5% heparin sodium via cardiac sampling. Plasma was separated and stored at −80 °C until analyzed. The plasma samples with final concentrations of 25 μg/mL, 50 μg/mL, 100 μg/mL, 200 μg/mL, 400 μg/mL, and 750 μg/mL were prepared by mixing 1500 μg/mL of antimicrobial peptides with rat plasma, then adding acetonitrile containing 0.1% TFA at 1/1 volume. After vortexing for 30 s, the samples were centrifuged at 14,000 r/min for 20 min, the supernatant was aspirated, sterilized using a 0.22 μm sterilization filter, and 30 μL of the sample was used for HPLC determination. After HPLC detection, the value of the chromatographic peak area was counted, the mathematical relationship between the sample concentration and the chromatographic peak area was calculated, and the standard curve was drawn. The standard curve was regressio-calculated by linear fitting Y = aX + b and weighted least square method (w = 1/c2).
The 1 mg/mL peptide solution was mixed with SD rat plasma and incubated in a water bath at 37 °C. Samples were taken at different time points of 0, 20, 30, 40, 60, 80, 100, 120, 140, 160, 180, 200, 210, 240, 300, 400, 500, and 600 min. After vortexing for 30 s, the samples were centrifuged at 14,000 r/min for 20 min, the supernatant was aspirated and sterilized using a 0.22 μm sterilization filter, and 30 μL of the sample was used for HPLC determination. The experiment was repeated three times. The peak area measured by HPLC was substituted into the standard curve obtained by the above experiment, the peptide concentration at different time points was calculated, and the half-life of peptides in plasma was calculated.

[6] = test system: E. coli Y1; experiment: Bacterial colony number in mouse abdominal cavity; assay type: in vivo; details: 24 h after treatment, three mice, control group 1 × 10^9 CFU/mL
Protocol: One hour after the mice were intraperitoneally injected with 0.5 mL of E. coli Y1 suspension (10^9 CFU/mL), different doses of C-LR18 (2.5 mg/kg, 5 mg/kg, and 7.5 mg/kg) were injected into the mice through the tail vein, respectively. After 24 h, 2 mL sterile saline was injected into the abdominal cavity of the mice, and the mice were killed via cervical dislocation. The peritoneal cavity of mice was opened, the peritoneal fluid was absorbed, and the peritoneal fluid was diluted with sterilized MH medium in a double ratio. After coating the plate, the peritoneal fluid was cultured at 37 °C for 16–20 h, and the colony count was performed. Three mice were taken from each group.

Compound: CC(C)C[C@@H]1NC(=O)[C@H](CCCNC(=N)N)NC(=O)[C@H](CCCNC(=N)N)NC(=O)[C@H](CC(C)C)NC(=O)[C@H](CC(C)C)NC(=O)[C@H](CCCNC(=N)N)NC(=O)[C@H](CC(C)C)NC(=O)[C@@H]2CCCN2C(=O)[C@H](CCCNC(=N)N)NC(=O)[C@H](CCCNC(=N)N)NC(=O)[C@@H]2CCCN2C(=O)[C@H](CC(C)C)NC(=O)[C@H](CCCNC(=N)N)NC(=O)[C@H](CC(C)C)NC(=O)[C@H](CC(C)C)NC(=O)[C@H](CCCNC(=N)N)NC(=O)[C@H](CCCNC(=N)N)NC(=O)[C@H](CC(C)C)NC(=O)[C@@H](N)CSSC[C@@H](C(=O)O)NC1=O [C-LR18] (H-CLRRLLRLPRRPLRLLRRLC-OH; disulfide 1-20; N-terminus and C-terminus assumed)
- Geometric mean MIC [1]: 2 µM
- PI fluorescence of treated cells (PI-A+) [2]: 60.6%
- change of antibacterial activity after papain [3]: remained unchanged
- increase of MIC ([4]; 50% serum or artificial gut solution for 30 min (abstract)): 4 fold
- increase of MIC ([4]; serum concentration 50%): 4 times
- half-life ([5]; 1 mg/mL peptide solution mixed with SD rat plasma (heparin), 37 °C water bath, 0–600 min, HPLC, repeated three times): 3.49 ± 0.337 h
- peptide degraded in plasma ([5]; after 210 min, rat plasma 37 °C, HPLC): More than half
- peptide detected in plasma samples ([5]; after 600 min, rat plasma 37 °C, HPLC): no C-LR18 could be detected
- half-life in rat plasma relative to LR18 ([5]; in vitro rat plasma): 3.37 times
- prolongation of half-life in rat plasma versus LR18 ([5]; in vitro rat plasma): 2.4555 h
- number of colonies in mouse abdominal cavity ([6]; 2.5 mg/kg): 10^7 CFU/mL
- number of colonies in mouse abdominal cavity ([6]; 5.0 mg/kg): 10^6 CFU/mL
- number of colonies in mouse abdominal cavity ([6]; 7.5 mg/kg): 10^4 CFU/mL
